Assays:
MroB/C = MroB/C dehydration (Dha formation) of MroA precursor peptide variants, MALDI-TOF-MS / LC-MS/MS; type: biochemical, Micromonospora rosaria; conditions: for Dha formation: MroA2 multi-site variants, in vitro translated, MALDI-TOF-MS; for dehydration by MroBC (site and extent): MroBC assays followed by LC-MS/MS analysis, result in words
Protocol: In a 0.65 mL protein low-binding Eppendorf tube placed on ice. 0.75 μL of purified mroA variant template DNA was mixed with 0.75 μL of Solution B and 1 μL of Solution A of PURExpress In vitro Protein Synthesis Kit (E6800L) purchased from NEB (total volume of reaction is 2.5 μL). The translation reactions were performed at 37° C. for 1 h on an aluminum block.
For a full MroBCD substrate scope investigation, a total translation volume for each variant of 7.5 μL was performed. 1.5 μL of 90 mM iodoacetamide (IAA) was added to quench dithiothreitol (DTT) in the translation reaction mixture, a thiol-based nucleophile that can react with electrophilic dehydroalanines generated from MroBC-catalyzed dehydration assays. The translation product was split into two parts with these corresponding volumes: 3 μL and 6 μL. In the 6 μL part. 10.2 μL of the enzyme mix containing enzymes and cofactors was added along with 1.8 μL 90 mM ATP (pH 7.5), which was used to initiate the reaction. The enzyme mix was made by adding these components in the following order: HEPES pH 7.5, MgCl2, glutamate, T. bispora tRNA^Glu (CUC), thermostable inorganic pyrophosphatase (TIPP), TEV (L56V/S135G/S219V) (w/w ratio with a total amount of MBP-tagged protein=1:10), MBP-MroB, MBP-MroC, and T. bispora GluRS. The enzyme mix was incubated 25 min at room temperature before adding to the translation product to facilitate in situ TEV-catalyzed cleavage of MBP from MBP-MroB and MBP-MroC. The enzymatic reaction proceeded for 1 h at room temperature. Overall, the concentration of components in the 18 μL reaction mix is as follows: 50 mM HEPES pH 7.5, 5 mM MgCl2. L-glutamate 1 mM, 3 μM T. bispora tRNA^Glu, 1 μM T. bispora GluRS, 2 μM MBP-MroB, 2 μM MBP-MroC, […], 0.027 U/μL TIPP, and 5 mM IAA. In addition, the 3 μL part was incubated with the same buffer lacking enzymes and tRNA as a translation control.
The reactions were performed similarly as described above, with 10 μM substrate concentration and without IAA. The total volume of each reaction is 100 μL.
Enzymatic assays were desalted using solid-phase extraction prior to LC-ESI-MS/MS analysis. Specifically, except for the thiazol(in)es-containing pyritide (which utilize 8 mg Pierce C18 Spin Column), the samples were applied to Toptip C18 (10-200 μL, Glygen Corp) wetted with 50 μL of 80% acetonitrile (0.1% formic acid) and equilibrate with 150 μL of 0.1% formic acid following the manufacturer instructions. The C18 columns (tips) are then washed with 150 μL of 0.1% formic acid and eluted using 100 μL 80% acetonitrile (0.1% formic acid). The samples were then dried utilizing lyophilization and redissolved in 25% acetonitrile (80 μL for enzymatic assays of in vitro-translated substrates and 200 μL for enzymatic assays of purified substrates). Then 20 μL of each sample was injected into an Agilent AdvanceBio Peptide Plus column (2.1×150 mm, 2.7 μm) equipped with an Agilent 6545B Q-TOF interfaced with an Agilent 1290 Infinity II LC system. Mobile phase solvents were composed of H2O, 0.1% formic acid (Solvent A), and acetonitrile 0.1% formic acid (Solvent B). The column compartment was maintained at 35° C. during all experiments. The column was equilibrated with 5 column volumes of starting mobile phase (95% A and 5% B) between injections. The gradient of all LC runs was as follows: 0-2 min: 95% A 5% B, 2-3 min: 70% A 30% B, 3-18 min: 20% A 80% B, 18-20 min: 5% A 95% B. The samples were run to waste for the first 3 min before applying to the mass spectrometer. Mass range was set from 100 to 1700 m/z (except for 412MroA1 W7G: 100-3000 m/z). MS parameters were as follows: gas, 320° C. at 8 L/min: nebulizer, 35 psig: nozzle voltage, 1000 V: sheath gas, 350° C. at 11 L/min: capillary, 3500 V: fragmentor, 125 V: skimmer, 65 V: MS scan rate (10) spectra/s): MS-MS scan rate (5 spectra/s); and isolation width (MS/MS), 1.3 m z. […]

MroD = MroD [4+2] macrocyclization of didehydrated MroA2 variants, MALDI-TOF-MS; type: biochemical, Micromonospora rosaria; set-up: key: +++ indicates enzyme activity roughly equal to wild-type MroA2; ++ indicates modestly reduced enzyme activity; + indicates severely reduced enzyme activity; − indicates no detectable enzyme activity (no macrocycles observed); conditions: MroA2 multi-site variants; qualitatively estimated from leader peptide vs remaining didehydrated intermediate
Protocol: After incubation, the enzyme reaction (18 μL) was split into two equal parts. One part was treated with MBP-MroD such that the final concentration of MBP-MroD is 3 μM, and the other part was added the same volume but with buffer lacking MBP-MroD (50 mM HEPES, 300 mM NaCl, 2.5% glycerol, 0.5 mM TCEP). The reaction further proceeded for 1.5 h at room temperature. All reaction mixture was then desalted with solid-phase extraction using Ziptip with 0.6 μL C18 resin (EMD Millipore) and crystallized on an MTP384 steel target plate using either saturated sinapic acid or 50 mg/mL Super DHB [dissolved in 60% acetonitrile and 0.1% trifluoroacetic acid (TFA)] as the matrix. The crystallized spots were then analyzed using MALDI-TOF-MS (Bruker Ultraflex). The external standard for MALDI-TOF-MS analysis is ProteoMass Peptide and Protein MALDI-MS Calibration Kit (Sigma).

Substance | Dha formation (MroB/C) | Relative MroD conversion (MroD) | dehydration by MroBC (site and extent) (MroB/C)
SGNAWIKSWLI [Number 32] | 2 Dha | +++ | –
SGKGKQASWLI [Number 19] | 2 Dha | – | –
SGDAMRWASWLI [Number 53] | 2 Dha | – | –
SGREFANSWLI [Number 35] | 2 Dha | + | –
SGHWANSWLI [Number 15] | 2 Dha | +++ | –
SGGYRPRSWLI [Number 38-H7R] | 2 Dha | +++ | –
SGAQQHSWLI [Number 13] | 2 Dha | +++ | –
SGMARYSWLI [Number 26] | 2 Dha | + | –
SGRVALEASWLI [Number 37] | 2 Dha | + | –
SGFIRNASWLI [Number 31] | 2 Dha | ++ | –
SGQPQRLGSWLI [Number 42] | 2 Dha | +++ | –
SGNMHPGKSWLI [Number 40] | 2 Dha | ++ | –
SGNERGSWLI [Number 9] | 2 Dha | +++ | –
SGRYAGRSWLI [Number 39-W7R] | 2 Dha | +++ | –
SGRGYALSWLI [Number 25] | 2 Dha | ++ | –
SGKAPGRSWLI [Number 16] | 2 Dha | +++ | –
MroA2-SIG: MroA2 variant (MRRRGSMDNVVTEAAEFADLDIVDLDLAVDEELAALSVGGLGNTEVGAGGFFGRSWLI) | – | – | went to completion
SGYRRRAGSWLI [Number 50] | 2 Dha | +++ | –
SGQGRNRSWLI [Number 24-V7R] | 2 Dha | +++ | –

Substance | Dha formation (MroB/C) | Relative MroD conversion (MroD) | dehydration by MroBC (site and extent) (MroB/C)
SGFDRAGHSWLI [Number 46] | 2 Dha | + | –
SGIKNDASWLI [Number 23] | 2 Dha | +++ | –
SGKALERSWLI [Number 29-F7R] | Mix of 1,2 | ++ | –
SGYANRAGSWLI [Number 33] | 2 Dha | +++ | –
SGGRENSWLI [Number 11] | 2 Dha | ++ | –
SGEMHQHSWLI [Number 41] | Mix of 1, 2 | + | –
SGHDNQARSWLI [Number 49] | 2 Dha | +++ | –
SGPKGSWLI [Number 5] | 2 Dha | +++ | –
SGAGLNRSWLI [Number 17] | 2 Dha | +++ | –
SGPKRWGHSWLI [Number 51] | 2 Dha | + | –
SGDGWRSWLI [Number 18] | 2 Dha | +++ | –
SGERGMGKSWLI [Number 34] | 2 Dha | +++ | –
SGLGHSWLI [Number 1] | 2 Dha | + | –
SGLKFYHSWLI [Number 44] | 2 Dha | +++ | –
SGKLGFSWLI [Number 10] | 2 Dha | + | –
SGHQFKSWLI [Number 22] | 2 Dha | +++ | –
MroA2-S7G: MroA2 variant (MRRRGSMDNVVTEAAEFADLDIVDLDLAVDEELAALSVGGLGNTEVGASGFFGRGWLI) | – | – | went to completion
SGQYKFRSWLI [Number 48] | 2 Dha | +++ | –
SGAVRFNGSWLI [Number 36] | 2 Dha | + | –

Substance | Dha formation (MroB/C) | Relative MroD conversion (MroD) | dehydration by MroBC (site and extent) (MroB/C)
MroA2-S1G/W8G: MroA2 variant (MRRRGSMDNVVTEAAEFADLDIVDLDLAVDEELAALSVGGLGNTEVGAGGFFGRSGLI) | – | – | inefficiently dehydrated at Ser7
S7G/110G: MroA2 variant (MRRRGSMDNVVTEAAEFADLDIVDLDLAVDEELAALSVGGLGNTEVGASGFFGRGWLG) | – | – | completely dehydrated at Ser1
SGHAAHSWLI [Number 7] | 2 Dha | +++ | –
SGYDRQRSWLI [Number 56-Y7R] | 2 Dha | +++ | –
SGGWRVAHSWLI [Number 45] | 2 Dha | + | –
SGPRANYSWLI [Number 30] | 2 Dha | ++ | –
SGQGRNVSWLI [Number 24] | 2 Dha | + | –
SGREFARSWLI [Number 35-N7R] | 2 Dha | +++ | –
SGDDRDGGSWLI [Number 27] | Mix of 1, 2 | + | –
SGVKFSWLI [Number 3] | 2 Dha | + | –
SGIYHNSWLI [Number 20] | 2 Dha | +++ | –
SGAWRSWLI [Number 6] | 2 Dha | +++ | –
SGRYHSWLI [Number 12] | 2 Dha | +++ | –
SGQDVANRSWLI [Number 43] | 2 Dha | +++ | –
SGMPRGSWLI [Number 8] | 2 Dha | +++ | –
SGPMHYSWLI [Number 21] | 2 Dha | +++ | –
SGVKAWSWLI [Number 14] | 2 Dha | +++ | –
S7G/W8G: MroA2 variant (MRRRGSMDNVVTEAAEFADLDIVDLDLAVDEELAALSVGGLGNTEVGASGFFGRGGLI) | – | – | completely dehydrated at Ser1

From patent publication US20260132172A1, “IN VITRO BIOSYNTHESIS OF DIVERSE PYRIDINE-BASED MACROCYCLIC PEPTIDES” (The Brd. of Trustees of the Univ. of Illinois, priority 2022, published 2026)
